Patent US8361968B2 (Takeda Pharmaceutical Company Limited, priority 2002, dated 2013)
“And” between values parts separate entries of the source, which are not always exact repeats. Equal values may be shown once. Numbered stars: 1 amine (or outer) side, 2 acyl side, 3 side chain; on linkers, the order of the positions; unused ones are H or OH. Square brackets hold non-standard residues; d marks the D form. Peptide text beside a SMILES is read from it. * marks the point of attachment. X1 = O=C([C@H](Cc1ccc2ccccc2n1)N[*:1])[*:2]; X7 = CNC(=N)NCCCC[C@H](N[*:1])C(=O)[*:2]; 1Nal = N[C@@H](Cc1cccc2ccccc12)C(=O)O; Cyclohexanecarbonyl = O=C(C1CCCCC1)*; Arg(Me) = CNC(=N)NCCC[C@H](N)C(=O)O; X6 = O=C(c1c[nH]c2ccccc12)*; Orn = NCCC[C@H](N)C(=O)O; azaGly = NNC(=O)O

Columns and labels:
hOT7T175 [1] = biological target: T1, hOT7T175 (Homo sapiens, UniProt Q969F8, L364H); experiment: hOT7T175 receptor binding activity: binding inhibition of Cy-5-labeled metastin (40-54) on hOT7T175-expressed CHO cells; set-up: expressed in transfected cells; host or cells: CHO cells
hOT7T175 [2] = biological target: T1, hOT7T175; experiment: Intracellular Ca ion level-increasing activity using FLIPR in hOT7T175/CHO; type: cell-based; set-up: expressed in transfected cells; host or cells: CHO/dhfr- cells, obtained from ATCC; settings: relative, Metastin (1-54) = 1

T1 sequence (Q969F8 whole entry L364H): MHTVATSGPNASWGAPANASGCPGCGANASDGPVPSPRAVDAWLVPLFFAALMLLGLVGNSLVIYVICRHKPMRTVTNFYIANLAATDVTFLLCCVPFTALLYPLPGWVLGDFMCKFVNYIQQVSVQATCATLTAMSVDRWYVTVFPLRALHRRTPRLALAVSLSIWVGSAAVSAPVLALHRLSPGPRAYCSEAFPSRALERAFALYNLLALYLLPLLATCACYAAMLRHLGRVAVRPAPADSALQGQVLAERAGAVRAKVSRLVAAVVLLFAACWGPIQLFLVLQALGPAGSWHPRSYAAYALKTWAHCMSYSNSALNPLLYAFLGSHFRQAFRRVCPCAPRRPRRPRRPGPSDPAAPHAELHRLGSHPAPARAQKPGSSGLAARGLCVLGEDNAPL

Structure (SMILES)	IC50 (hOT7T175 [1])	Specific Activity (intracellular Ca ion level-increasing activity) (hOT7T175 [2])
CC(C)C[C@H](NC(=O)CNC(=O)[C@H](Cc1ccccc1)NC(=O)[C@H](CO)NC(=O)[C@H](CC(N)=O)NC(=O)[C@H](Cc1cn(C=O)c2ccccc12)NC(=O)[C@H](CC(N)=O)NC(=O)[C@@H](N)Cc1ccc(O)cc1)C(=O)N[C@@H](CCCNC(=N)N)C(=O)N[C@@H](Cc1ccc(C#N)cc1)C(N)=O [Compound No. 78, Tyr-Asn-Trp(For)-Asn-Ser-Phe-Gly-Leu-Arg-Phe(4CN)-NH2]	25 nM	10
CNC(=N)NCCC[C@H](NC(=O)[C@H](CC(C)C)NC(=O)NNC(=O)[C@H](Cc1ccccc1)NC(=O)[C@H](CO)NC(=O)[C@H](CC(N)=O)NC(=O)C1CCCCC1)C(=O)N[C@@H](Cc1ccccc1)C(N)=O [Compound No. 278, Cyclohexanecarbonyl-Asn-Ser-Phe-AzaGly-Leu-Arg(Me)-Phe-NH2] (Cyclohexanecarbonyl-NSF[azaGly]L[Arg(Me)]F-NH2)	110 nM	2
CC(C)C[C@H](NC(=O)CNC(=O)[C@H](Cc1cccc2ccccc12)NC(=O)[C@H](CO)NC(=O)[C@H](CC(N)=O)NC(=O)[C@H](Cc1c[nH]c2ccccc12)NC(=O)[C@H](CC(N)=O)NC(=O)[C@@H](N)Cc1ccc(O)cc1)C(=O)N[C@@H](CCCNC(=N)N)C(=O)N[C@@H](Cc1ccccc1)C(N)=O [Compound No. 151, Tyr-Asn-Trp-Asn-Ser-Nal(1)-Gly-Leu-Arg-Phe-NH2] (H-YNWNS[1Nal]GLRF-NH2; N-terminus assumed)	300 nM	1
CC(C)C[C@H](NC(=O)CNC(=O)[C@H](Cc1ccccc1)NC(=O)[C@H](CO)NC(=O)[C@H](CC(N)=O)NC(=O)[C@H](Cc1c[nH]c2ccccc12)NC(=O)[C@H](CC(N)=O)NC(=O)[C@@H](N)Cc1ccc(O)cc1)C(=O)N[C@@H](CCCNC(=N)N)C(=O)N[C@@H](Cc1c(F)c(F)c(F)c(F)c1F)C(N)=O [Compound No. 111]	140 nM	3
CNC(=N)NCCC[C@H](NC(=O)[C@H](CC(C)C)NC(=O)CNC(=O)[C@H](Cc1ccccc1)NC(=O)[C@H](CO)NC(=O)[C@H](CC(N)=O)NC(=O)[C@@H](NC(=O)[C@H](CC(N)=O)NC(=O)[C@H](N)Cc1ccc(O)cc1)[C@@H](C)O)C(=O)N[C@@H](Cc1ccccc1)C(N)=O [Compound No. 205] (H-[dY]NTNSFGL[Arg(Me)]F-NH2)	260 nM	10
CNC(=N)NCCC[C@H](NC(=O)[C@H](CC(C)C)NC(=O)NNC(=O)[C@H](Cc1ccccc1)NC(=O)[C@H](CO)NC(=O)[C@H](CC(N)=O)NC(=O)c1c[nH]c2ccccc12)C(=O)N[C@@H](Cc1ccccc1)C(N)=O [Compound No. 265, Indole-3-carbonyl-Asn-Ser-Phe-AzaGly-Leu-Arg(Me)-Phe-NH2] (X6-NSF[azaGly]L[Arg(Me)]F-NH2)	95 nM	3
CC(C)C[C@H](NC(=O)CNC(=O)[C@H](Cc1ccccc1)NC(=O)[C@H](CO)NC(=O)[C@H](CC(N)=O)NC(=O)[C@H](Cc1c[nH]c2ccccc12)NC(=O)[C@H](CC(N)=O)NC(=O)[C@@H](N)Cc1ccc(O)cc1)C(=O)N[C@@H](CCCNC(=N)N)C(=O)N[C@@H](Cc1ccc(Cl)cc1)C(N)=O [Compound No. 130]	42 nM	10
CNC(=N)NCCCC[C@H](NC(=O)[C@H](CC(C)C)NC(=O)CNC(=O)[C@H](Cc1ccccc1)NC(=O)[C@H](CO)NC(=O)[C@H](CC(N)=O)NC(=O)[C@H](Cc1c[nH]c2ccccc12)NC(=O)[C@H](CC(N)=O)NC(=O)[C@@H](N)Cc1ccc(O)cc1)C(=O)N[C@@H](Cc1ccccc1)C(N)=O [Compound No. 312] (H-YNWNSFGL[X7]F-NH2)	100 nM	3
CNC(=N)NCCC[C@H](NC(=O)[C@H](CC(C)C)NC(=O)CNC(=O)[C@H](Cc1ccccc1)NC(=O)[C@H](CO)NC(=O)[C@H](CC(N)=O)NC(=O)[C@@H](Cc1c[nH]c2ccccc12)NC(=O)[C@H](N)Cc1ccc(O)cc1)C(=O)N[C@@H](Cc1ccccc1)C(N)=O [Compound No. 224, D-Tyr-D-Trp-Asn-Ser-Phe-Gly-Leu-Arg(Me)-Phe-NH2] (H-[dY][dW]NSFGL[Arg(Me)]F-NH2)	140 nM	2 and 1
CNC(=N)NCCC[C@H](NC(=O)[C@H](CC(C)C)NC(=O)NNC(=O)[C@H](Cc1ccccc1)NC(=O)[C@H](CO)NC(=O)[C@H](CC(N)=O)NC(=O)[C@H](Cc1ccc2ccccc2n1)NC(=O)[C@H](CC(N)=O)NC(=O)[C@H](N)Cc1ccc(O)cc1)C(=O)N[C@@H](Cc1ccccc1)C(N)=O [Compound No. 301, D-Tyr-Asn-Ala(2-Qui)-Asn-Ser-Phe-AzaGly-Leu-Arg(Me)-Phe-NH2] (H-[dY]N[X1]NSF[azaGly]L[Arg(Me)]F-NH2)	15 nM	1
CC(C)C[C@H](NC(=O)CNC(=O)[C@H](Cc1ccccc1)NC(=O)[C@H](CO)NC(=O)[C@H](CC(N)=O)NC(=O)[C@H](Cc1c[nH]c2ccccc12)NC(=O)[C@H](CC(N)=O)NC(=O)[C@@H](N)Cc1ccc(O)cc1)C(=O)N[C@@H](CCCNC(=N)N)C(=O)N[C@@H](Cc1cccc(C(F)(F)F)c1)C(N)=O [Compound No. 200]	340 nM	10
CNC(=N)NCCC[C@H](NC(=O)[C@H](CC(C)C)NC(=O)NNC(=O)[C@H](Cc1ccccc1)NC(=O)[C@H](CO)NC(=O)[C@H](CC(N)=O)NC(=O)[C@@H](Cc1c[nH]c2ccccc12)NC(=O)[C@@H](CC(N)=O)NC(=O)[C@H](N)Cc1ccc(O)cc1)C(=O)N[C@@H](Cc1ccccc1)C(N)=O [Compound No. 238, D-Tyr-D-Asn-D-Trp-Asn-Ser-Phe-AzaGly-Leu-Arg(Me)-Phe-NH2]	49 nM	1
CC[C@H](C)[C@H](NC(=O)[C@H](N)Cc1ccc(O)cc1)C(=O)N[C@@H](CC(N)=O)C(=O)N[C@@H](CO)C(=O)N[C@@H](Cc1ccccc1)C(=O)NCC(=O)N[C@@H](CC(C)C)C(=O)N[C@@H](CCCNC(=N)NC)C(=O)N[C@@H](Cc1ccccc1)C(N)=O [Compound No. 228] (H-[dY]INSFGL[Arg(Me)]F-NH2)	40 nM	5
CC(C)C[C@H](NC(=O)CNC(=O)[C@H](Cc1ccccc1)NC(=O)[C@H](CO)NC(=O)[C@H](CC(N)=O)NC(=O)[C@H](Cc1c[nH]c2ccccc12)NC(=O)[C@H](CC(N)=O)NC(=O)[C@@H](N)Cc1ccc(O)cc1)C(=O)N[C@@H](CCCN)C(=O)N[C@@H](Cc1ccccc1)C(N)=O [Compound No. 314] (H-YNWNSFGL[Orn]F-NH2)	470 nM	1
CCCC[C@H](NC(=O)CNC(=O)[C@H](Cc1ccccc1)NC(=O)[C@H](CO)NC(=O)[C@H](CC(N)=O)NC(=O)[C@H](Cc1c[nH]c2ccccc12)NC(=O)[C@H](CC(N)=O)NC(=O)[C@@H](N)Cc1ccc(O)cc1)C(=O)N[C@@H](CCCNC(=N)N)C(=O)N[C@@H](Cc1ccccc1)C(N)=O [Compound No. 105, Tyr-Asn-Trp-Asn-Ser-Phe-Gly-Nle-Arg-Phe-NH2]	880 nM	1
